Measured values from the supplement of paper PMC4380931.

Experiments:
MZ7MEL = assay: relative viability (cell count relative to DMSO-treated control) (fraction of DMSO control); higher = more viable cells / less drug effect
Method: (§1)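 BRAF V600E/D melanoma cell lines were seeded in 96-well plates, treated in 4 replicates with seven doses (3.16 nM to 3.16 uM) of RAF/MEK inhibitors for 24, 48 or 72 h, and stained with Hoechst 33342 (nuclei) and DEVD-NucView488 caspase-3 substrate. Plates were imaged on an Operetta. Relative viability is the cell count normalised to a DMSO-treated control; apoptosis fraction is the fraction of NucView488-positive nuclei.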

WM115 = assay: as above
Method: as §1

C32 [1] = assay: as above
Method: as §1

MMACSF = assay: apoptotic fraction of cells (caspase-3 NucView488 positive); higher = more apoptosis
Method: as §1

SKMEL28 = assay: as above
Method: as §1

C32 [2] = assay: as above
Method: as §1

CCCS(=O)(=O)Nc1ccc(F)c(C(=O)c2c[nH]c3ncc(Cl)cc23)c1F [PLX4720]
Conditions	apoptotic fraction of cells, C32 [2]	apoptotic fraction of cells, MMACSF	apoptotic fraction of cells, SKMEL28	relative viability, C32 [1]	relative viability, MZ7MEL	relative viability, WM115
24 h, 0.00316 µM	0.0873	0.0449	–	0.98	1.02	1.14
24 h, 0.01 µM	0.121	0.0443	–	1	1.02	1.39
24 h, 0.0316 µM	0.119	0.0397	–	1.04	1.14	1.49
24 h, 0.1 µM	0.153	0.0422	–	1.01	1.19	1.44
24 h, 0.316 µM	0.174	0.0417	–	0.942	1.13	1.58
24 h, 1 µM	0.245	0.0492	–	0.824	0.956	1.02
24 h, 3.16 µM	0.29	0.0464	–	0.693	0.795	1.14
48 h, 0.00316 µM	0.0967	0.0462	0.0324	1.11	1.04	1.25
48 h, 0.01 µM	0.159	0.0457	0.0306	0.905	0.99	1.37
48 h, 0.0316 µM	0.158	0.0434	0.0349	0.929	1.02	1.32
48 h, 0.1 µM	0.105	0.0443	0.035	1.01	1.09	1.83
48 h, 0.316 µM	0.143	0.0469	0.0365	0.857	0.931	1.67
48 h, 1 µM	0.465	0.0555	0.0401	0.454	0.608	1.24
48 h, 3.16 µM	0.784	0.0933	0.0568	0.155	0.48	0.792
72 h, 0.00316 µM	0.0846	0.0394	0.0401	0.957	1.28	1.01
72 h, 0.01 µM	0.0849	0.0424	0.0409	1.08	1.16	1.03
72 h, 0.0316 µM	0.0684	0.0386	0.0321	1.1	1.07	1.03
72 h, 0.1 µM	0.0354	0.0346	0.0301	0.937	0.661	1.06
72 h, 0.316 µM	0.215	0.0549	0.0373	0.516	0.504	0.8596
72 h, 1 µM	0.619	0.218	0.0372	0.182	0.382	0.594
72 h, 3.16 µM	0.813	0.534	0.105	0.0669	0.329	0.302

Cn1cnc2c(F)c(Nc3ccc(Br)cc3Cl)c(C(=O)NOCCO)cc21 [Selumetinib]
Conditions	apoptotic fraction of cells, C32 [2]	apoptotic fraction of cells, MMACSF	apoptotic fraction of cells, SKMEL28	relative viability, C32 [1]	relative viability, MZ7MEL	relative viability, WM115
24 h, 0.00316 µM	0.0878	0.0508	–	1.02	1.03	1.06
24 h, 0.01 µM	0.113	0.0478	–	1.02	1.13	1.27
24 h, 0.0316 µM	0.144	0.0349	–	1	1.11	1.36
24 h, 0.1 µM	0.213	0.0436	–	0.891	1.07	1.27
24 h, 0.316 µM	0.215	0.0526	–	0.938	1.07	1.46
24 h, 1 µM	0.236	0.0569	–	0.861	0.997	0.89
24 h, 3.16 µM	0.272	0.0615	–	0.811	0.809	0.728
48 h, 0.00316 µM	0.0773	0.0481	0.0348	1.24	1.01	1.02
48 h, 0.01 µM	0.0963	0.039	0.0333	1.09	1.01	1.39
48 h, 0.0316 µM	0.0636	0.0469	0.0343	1.15	1.04	1.37
48 h, 0.1 µM	0.107	0.0518	0.0355	0.959	0.797	1.48
48 h, 0.316 µM	0.262	0.0667	0.0422	0.71	0.508	1.24
48 h, 1 µM	0.598	0.14	0.0573	0.322	0.504	0.823
48 h, 3.16 µM	0.83	0.232	0.0991	0.127	0.492	0.592
72 h, 0.00316 µM	0.103	0.0392	0.036	0.891	1.14	1.03
72 h, 0.01 µM	0.0822	0.0379	0.0338	0.998	1.06	1.07
72 h, 0.0316 µM	0.0406	0.0318	0.0305	0.952	0.58	0.918
72 h, 0.1 µM	0.108	0.0807	0.037	0.698	0.328	0.751
72 h, 0.316 µM	0.403	0.193	0.0563	0.347	0.349	0.587
72 h, 1 µM	0.759	0.434	0.111	0.112	0.308	0.409
72 h, 3.16 µM	0.862	0.617	0.214	0.0615	0.31	0.287

CCCS(=O)(=O)Nc1ccc(F)c(C(=O)c2c[nH]c3ncc(-c4ccc(Cl)cc4)cc23)c1F [Vemurafenib]
Conditions	apoptotic fraction of cells, C32 [2]	apoptotic fraction of cells, MMACSF	apoptotic fraction of cells, SKMEL28	relative viability, C32 [1]	relative viability, MZ7MEL	relative viability, WM115
24 h, 0.00316 µM	0.0798	0.0413	–	0.987	0.982	1.17
24 h, 0.01 µM	0.139	0.0384	–	0.995	1.11	1.2
24 h, 0.0316 µM	0.166	0.0409	–	1.03	1.08	1.22
24 h, 0.1 µM	0.186	0.0412	–	0.985	1.08	1.18
24 h, 0.316 µM	0.202	0.0459	–	0.997	1.15	1.17
24 h, 1 µM	0.17	0.0484	–	0.927	1.1	1.22
24 h, 3.16 µM	0.309	0.0553	–	0.637	0.938	1.24
48 h, 0.00316 µM	0.11	0.0481	0.0412	1.07	1.04	1.04
48 h, 0.01 µM	0.173	0.0447	0.0316	0.901	1.09	1.24
48 h, 0.0316 µM	0.186	0.0414	0.0337	0.891	1.07	1.24
48 h, 0.1 µM	0.127	0.0439	0.0359	0.96	1.07	1.45
48 h, 0.316 µM	0.0971	0.0499	0.0364	0.988	0.955	1.73
48 h, 1 µM	0.407	0.0573	0.038	0.551	0.667	1.31
48 h, 3.16 µM	0.862	0.122	0.0538	0.102	0.54	0.884
72 h, 0.00316 µM	0.0761	0.0401	0.0393	1.04	1.29	0.953
72 h, 0.01 µM	0.0907	0.0441	0.0398	1.07	1.39	1.04
72 h, 0.0316 µM	0.0843	0.0407	0.0297	1.02	1.19	1.05
72 h, 0.1 µM	0.061	0.0382	0.0272	0.875	0.871	1.07
72 h, 0.316 µM	0.114	0.0493	0.0276	0.684	0.587	0.855
72 h, 1 µM	0.658	0.265	0.0399	0.162	0.367	0.571
72 h, 3.16 µM	0.928	0.692	0.147	0.0274	0.349	0.27
